Measurements taken from PubChem BioAssay AID602267 (Broad Institute, 2012).
The source made the active and inactive calls.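 The calls were made as follows: active = signal falls with dose and the fitted half-maximal concentration is at or below twice the top valid tested dose; inconclusive = flat curve with 30 to 70% inhibition, or poor fit; inactive = wrong direction, flat within 30%, or potency beyond limit.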

Each compound was assayed against Golgi-associated PDZ and coiled-coil motif-containing protein (Homo sapiens) (UniProt Q9HD26) (assay: CAL PDZ domain peptide-binding inhibitors, dose response, biochemical, fluorescence polarization, untagged CAL PDZ, cherry-pick (AID 602267)). Settings: purified CAL PDZ, TMR-peptide fluorescence polarization, 1 h.

| AC50 | Structure (SMILES) |
| --- | --- |
| 1.78 µM | COc1ccc2noc3c2c1C(=O)c1ccccc1-3 |
| 29.7 µM | O=C(O)CSc1cc(NS(=O)(=O)c2ccc(Br)cc2)c2ccccc2c1O |
| 21.4 µM | COc1ccc(OC)c(-c2c3cc(O)c(=O)cc-3oc3cc(O)c(O)cc23)c1 |

Same assay, conditions: purified CAL PDZ, TMR-peptide fluorescence polarization, 1 h; at 16 µM (top of the series)

| activity change, negative = inhibition | Structure (SMILES) |
| --- | --- |
| inactive | CC1CCN(c2nc3c(c(=O)n(C)c(=O)n3C)n2CCSc2nc3ccccc3s2)CC1 |

Same assay, conditions: purified CAL PDZ, TMR-peptide fluorescence polarization, 1 h; at 50 µM (top of the series)

| activity change, negative = inhibition | Structure (SMILES) |
| --- | --- |
| inactive | O=[N+]([O-])c1ccccc1/C=N/Nc1nc(N2CCCC2)nc(N2CCCC2)n1 |
| inactive | COc1cc(NS(=O)(=O)c2ccc(NC(=S)Nc3ccccc3)cc2)nc(OC)n1 |
| inactive | C=CCNC(=O)CC1Nc2c3ccccc3nc(=S)n2C1=O (stereo not drawn) |
| inactive | OCC1(CCOc2ccccc2)CCN(CCCn2cccn2)CC1 |
| inactive | O=S(=O)(/N=C(/Nc1ccc(Cl)c(S(=O)(=O)N2CCOCC2)c1)c1ccc(F)cc1)c1ccccc1 |
| inactive | CCCCC(CCC(=O)Nc1nccs1)C(=O)O (stereo not drawn) |
| inactive | COCCOC(=O)c1c(C)oc2ccc(OS(C)(=O)=O)cc12 |
| inactive | CCC(=O)Nc1ccc(S(=O)(=O)NCc2ccco2)cc1 |
| inactive | O=C(COC(=O)c1cccc(O)c1)NC(=O)Cc1ccccc1 |
| inactive | Cc1ccc(CN2CCN(Cc3nc4ccccc4nc3C)CC2CCO)cc1 (stereo not drawn) |
| inactive | O=C(COC(=O)c1cccnc1Cl)Nc1ccc2c(c1)OCO2 |
| inactive | Cc1cccc(NC(=O)Cn2cnc3c(oc4ccccc43)c2=O)c1C |
| inactive | CCc1noc(C)c1C(=O)N1CCCC(CCC(=O)NCc2ccc(F)c(F)c2)C1 (stereo not drawn) |
| inactive | O=C(Nc1nc2ccccc2[nH]1)c1cc2ccccc2o1 |
| inactive | COC(=O)c1cccc([N+](=O)[O-])c1CS(=O)(=O)c1ccc(C)cc1 |
| inactive | COc1ccc(/C=C/C(=O)Nc2ccc3nc4n(c(=O)c3c2)CCCC4)cc1OC |
| inactive | CC12CNCC(C)(CN(C3(O)C(=O)Nc4ccc(Br)cc43)C1)C2=O (stereo not drawn) |
| inactive | COc1ccc(C(CNC(=O)COc2ccccc2-c2ccccc2)N2CCOCC2)cc1 (stereo not drawn) |
| inactive | Cc1ccc(C(=O)Nc2ccccc2)cc1S(=O)(=O)N1CCN(C)CC1 |
| inactive | CCOC(=O)C1CCN(C(=O)C2CC(=O)N(c3ccc4c(c3)OCCO4)C2)CC1 (stereo not drawn) |
| inactive | O=C(COC(=O)CNC(=O)c1cccc([N+](=O)[O-])c1)NCc1ccco1 |
| inactive | CN(C)S(=O)(=O)c1ccc(Cl)c(NC(=O)CSc2nnnn2-c2ccc(O)cc2)c1 |

| activity change, negative = inhibition | Structure (SMILES) |
| --- | --- |
| inactive | CCN(CCCn1c(=S)[nH]c2ccc(N3CCOCC3)cc2c1=O)c1ccccc1 |
| inactive | FC(F)(F)Oc1ccc(NC(=S)NCCCN2CCOCC2)cc1 |
| inactive | Cc1ccc(S(=O)(=O)N2CCN(C(=O)c3ccccn3)CC2)cc1 |
| inactive | CC(C)OCCCNC(=O)C1CC(=O)N(CCc2ccc(F)cc2)C1 (stereo not drawn) |
| inactive | COc1ccc(OC)c(NC(=O)CS(=O)(=O)Cc2ccccc2)c1 |
| inactive | COc1cc(C(=O)NC(C)CCc2ccccc2)cc(OC)c1OC (stereo not drawn) |
| inactive | CC(=O)Nc1cc(NC(C)=O)cc(C(=O)OCC(=O)Nc2ccc(S(=O)(=O)NC3=NCCCCC3)cc2)c1 |
| inactive | Cc1ccc(S(=O)(=O)N2CCN(C(=O)N(C)C)CC2)cc1 |
| inactive | O=C1C=C(c2ccccc2)C(c2ccccc2)C1 (stereo not drawn) |
| inactive | O=C(c1cccc(Oc2c(Cl)cccc2[N+](=O)[O-])c1)N1CCOCC1 |
| inactive | CC(=O)Nc1cccc(NC(=O)CSc2nnc(NC(=O)c3ccco3)s2)c1 |
| inactive | Cc1cc(SCC(=O)OCC(=O)c2c(N)n(C)c(=O)n(C)c2=O)c(C)cc1Br |
| inactive | O=C(O)CC1(CC(=O)Nc2ccc(Br)cc2)CCCCC1 |
| inactive | C=CCOc1ccc2ccccc2c1CNn1cn[nH]c1=S |
| inactive | Cc1sc(NC(=O)c2ccco2)c(C(Nc2ccccn2)c2ccccc2)c1C (stereo not drawn) |
| inactive | CCN1CCN(S(=O)(=O)c2ccc(OC)c3ccccc23)CC1 |
| inactive | CC(=O)N1CCN(c2ccc(NC(=O)C(c3ccccc3)c3ccccc3)cc2)CC1 |
| inactive | Cc1nn2c3ccccc3nc2c2ccccc12 |
| inactive | COc1ccc(NC(=O)c2cnn(-c3ccccc3)c2C)c(OC)c1 |
| inactive | CCN(CC)CCC(=O)N1c2ccccc2CCc2ccc(NC(=O)OC(C)C)cc21 |
| inactive | Cn1nc(C(=O)N2CCCc3ccccc32)c2ccccc2c1=O |
| inactive | CC(C)CNC(=O)CC1Nc2ccccc2NC1=O (stereo not drawn) |

| activity change, negative = inhibition | Structure (SMILES) |
| --- | --- |
| inactive | O=C(O)c1[nH]c2ccccc2c1C(c1ccccc1)c1c(C(=O)O)[nH]c2ccccc12 |
| inactive | CCOc1ccc(C(=O)NCC(=O)N2CCC(C)CC2)cc1OCC |
| inactive | COC(=O)CN1C(=O)C(O)=C(C(C)=O)C1c1ccc([N+](=O)[O-])cc1 (stereo not drawn) |
| inactive | Cc1ccc(CNC2CCCCC2)s1 |
| inactive | CC1CCC(NC(=O)C2CCN(c3cnccn3)CC2)CC1 (stereo not drawn) |
| inactive | CCN(CC)Cc1c(O)ccc2c1O/C(=C\C=C\c1ccccc1)C2=O |
| inactive | C=CCNC(=S)Nc1ccc(C)c(S(=O)(=O)N2CCCCC2)c1 |
| inactive | CC(=O)c1ccc(S(=O)(=O)N2CCN(c3ccccc3F)CC2)cc1 |
| inactive | NC(=O)c1cc2ccccc2o/c1=N\NC(=O)c1ccncc1 |
| inactive | O=C(N/N=C/c1ccc(OCc2ccccc2)cc1)c1ccc(O)cc1 |
| inactive | CC(C)CNC(=O)COC(=O)CCC(=O)c1ccc(Cl)cc1 |
| inactive | COCc1cc(C)nc(SCc2ccccc2)c1C#N |
| inactive | O=C(NCCc1cnc[nH]1)c1cccs1 |
| inactive | O=C(NNC(=S)NC(=O)c1ccc(Br)cc1)c1ccc([N+](=O)[O-])cc1 |
| inactive | Cc1ccc(-n2c(SCC(N)=O)nnc2-c2ccco2)cc1 |
| inactive | Cc1cc(C(=O)CN2CCCC2)c(C)n1-c1ccc(Cl)cc1 |
| inactive | CCOc1ccc(C(=O)NC2CC3CCCC(C2)N3Cc2ccccc2)cc1 (stereo not drawn) |
| inactive | CC(CN1CCCC1)OC(=O)C(c1ccccc1)c1ccccc1 (stereo not drawn) |
| inactive | CCCn1nnnc1NCc1cc(Br)ccc1OC |
| inactive | N/C(=N\OC(=O)Cc1ccccc1[N+](=O)[O-])c1cccnc1 |
